Patent US20040259783A1, “Pharmaceutical compositions of marine sponge microciona prolifera” (priority 2001, published 2004)

What was measured:
[1] = test system: rat aortic smooth muscle cells, A-10; experiment: Smooth muscle cell migration in vitro assay (scrape injury); assay type: cell-based; conditions: concentration giving 100% inhibition of smooth muscle cell motility, incubation up to 24 hrs
Method: The following in vitro assays were conducted to illustrate the effect of peptides, carbohydrates and extract (2.7K) on the smooth muscle cell migration. The cells used in the following example were rat aortic smooth muscle cells, A-10. The cells were seeded at 2.5×10^5 cells/well in 6 well plates using Dulbecco's Modified Eagle Medium (Gibco BRL Cat. # 11885-084),10% FBS and 1% Antibiotic Antimycotic (Gibco BRL Cat. # 15240). Confluency of cells after about 8 hrs was between 80˜90%. Cells were injured with the single edge cell scraper (one injury/well) then washed twice with PBS and treated with peptides B-1 (SEQ ID NO:1), B-2 (SEQ ID NO:2 ), B-3 (SEQ ID NO: 3), B-6, (SEQ ID NO: 4), B-9(SEQ ID NO:5), B-10(SEQ ID NO:6) AND B-11(SEQ ID NO: 7) at concentrations ranging from 10 μg/ml ml to 100 μg/ml. Images were taken using a X5 modulation objective (Zeiss, Germany) attached to a Zeiss Axiovert 100 inverted microscope equipped with Hoffman Modulation contrast optical filters (Greenvale, N.Y.).
The images were taken at zero time and following the incubation of smooth muscle cells with peptide, carbohydrates and extracts for a period of up to 24 hrs (FIGS. 1, 2, 3 and 4).

EAE mouse model = EAE mouse model (acute EAE induced with MBP and PTX); assay type: in vivo; conditions: 5 mg/kg daily; for clinical signs of MS symptoms: improvement in mean clinical score and delay in progression to disability; for mean clinical score: day 15, scale of 0 to 5, PBS treated mice 1.7 (B-9 study), 1.5 (B-1 study)
Method: The EAE mouse model is the standard animal model used for testing therapeutic compounds in the treatment of multiple sclerosis (MS). Acute EAE was induced by immunization of 3 months old SJL/J female mice (Jackson Lab.; Bar Harbor, Me.) with the MBP (myelin basic protein) and PTX (pertussis toxin). Each animal received an s.c. injection at tail base of 200 μg MBP in 0.1 ml of CFA and received an i.v. injection of 200 ng of PTX; pertussis toxin was injected again 48 hours later. Mice (4 animals per group) were treated with the peptide B-1 (SEQ ID NO: 1) or peptide B-9 (SEQ ID NO: 5) at a dose of 5 mg/kg daily; injections starting on the day of first immunization. Treatment was stopped at time of sacrifice. Mice were monitored daily from day 7 after immunization for clinical signs of EAE and were scored on a scale of 0 to 5. A score of 0 represented the absence of signs while a score of 5 was given to moribund animals.

[2] = MAF carbohydrates and MAF 2.7 K extract

| Compound | 100% Inhibition of Cell Motility [1, 2] | 100% Inhibition of Cell Motility ([1]; MAFp3 peptides) | clinical signs of MS symptoms (EAE mouse model) | mean clinical score (EAE mouse model) |
| --- | --- | --- | --- | --- |
| CC(=O)N[C@H]1[C@H](O[C@@H]2[C@H](O)[C@H](C)OC(O)[C@H]2O)O[C@H](CO)[C@@H](O)[C@@H]1O (stereo partly shown) [RR-1 disaccharides, GlcNAcβ1-3Fuc] | 5˜10 μg/mL | – | – | – |
| CC(=O)NC1C(OC2C(O)C(C)OC(O)C2O)OC(CO)C(OC2OC3COC(C)(C(=O)O)OC3C(O)C2O)C1O (stereo not shown) [RR-5 trisaccharides, (4,6-Pyr)Galβ1-4GlcNAcβ1-3Fuc] | 25 µg/mL | – | – | – |
| CFLTPHGVELHK (artificial peptide derived from Microciona prolifera) [Peptide B-10, 12 amino acid synthetic peptide derived from MAF] | – | 100 µg/mL | – | – |
| EDQLDAMNLS (artificial peptide derived from Microciona prolifera) [Peptide B-3, 10 amino acid synthetic peptide derived from MAF] | – | 50 µg/mL | – | – |
| GSGIGDEPTTS (artificial peptide derived from Microciona prolifera) [Peptide B-6, 11 amino acid synthetic peptide derived from MAF] | – | 50˜75 μg/ml | – | – |
| GVSVRRYRNRVRI (listed as Microciona prolifera) [Peptide B-1] | – | 100 µg/mL | significant attenuation | 0.7 |
| NGSIGPRGLPGVRGDRGKRGK (artificial peptide derived from Microciona prolifera) [Peptide B-11] | – | 75˜100 μg/ml | – | – |
| RFVINITTSGSD (artificial peptide derived from Microciona prolifera) [Peptide B-9, 12 amino acid synthetic peptide derived from MAF] | – | 20 µg/mL | significant attenuation | 0.6 |
| VGFDPYDYEVNEADG (artificial peptide derived from Microciona prolifera) [Peptide B-2, 15 amino acid synthetic peptide, derived from MAF] | – | 50 to 100 µg/mL | – | – |
